# System: ELAC_205
# Conditions: laccase; sodium acetate buffer; optimum pH 1.0, 50 °C (kinetic assay conditions not stated separately)
structure (smiles),measurement,value
"CCn1c(=NN=c2sc3cc(S(=O)(=O)O)ccc3n2CC)sc2cc(S(=O)(=O)O)ccc21 [ABTS, 2, 2’-azino-bis (3-ethylbenzothiazoline-6-sulfonic acid)]",Km,360 ± 70 µM

# Source: article PMC10870720, “Lignin bioconversion based on genome mining for ligninolytic genes in Erwinia billingiae QL-Z3” (Biotechnology for Biofuels and Bioproducts, 2024)
